Experimental data as given in patent US20180289655A1, “Methods and Compositions for the Intravenous Administration of Fumarates for the Treatment of Neurological Diseases” (Biogen MA Inc., priority 2015, published 2018).
“Also recorded” adds a separate entry of the source. Where a name gives a salt, the structure may show the parent alone.

Tests used:
[1] = MMF exposure in plasma and tissues after DMF PO or IV once daily for 5 days (LC-MS/MS); format: in vivo, Sprague-Dawley rats
Experimental: On Day 5 of the study 3 time points were evaluated: 10 minutes, 2 hours, and 6 hours after dosing, as illustrated in the timeline. At each time point, 5 animals from each group were sacrificed. At the 2 and 6 hour time points, the tissue samples from groups E, F, I, and J from each animal were split, with half of the tissue being processed for MMF exposure, and half processed for qRT-PCR. Note vehicle groups (C, D, G, and H) were not processed for MMF measurement and only used for qRT-PCR.
At 10 minutes, 2 and 6 hours, plasma and tissues (forebrain, cerebellum, jejunum, kidney and spleen) from cohorts of animals (Groups A, B, E, F, I, J) were collected to measure the concentration of MMF in the sample. MMF was quantitated using a non-GLP, but validated LC/MS/MS assay. Statistical comparisons were performed using the non-parametric Mann-Whitney U test.
As mentioned previously, Sprague-Dawley rats were sacrificed and terminal plasma and tissue samples were collected 10 minutes, 2 and 6 hours after dosing and MMF exposure in plasma, brain, cerebellum, jejunum and kidney was determined as follows. Tissues were snap frozen on dry ice after dissection. Immediately prior to blood collection, 4 μL of 250 mg/mL stock mixture of sodium fluoride (NaF) in water was added to each 100 μL of blood collected in a lithium heparin tube. The stock NaF mixture was prepared on the day of use and kept as a homogenous suspension through continuous stirring on a stir plate. Whole blood was added to the tube, and then samples were inverted several times and stored on wet ice (2° C. to 8° C.). All samples were centrifuged within 30 minutes of collection at 4° C. for 15 minutes at 1500×g (4200 RPM). Plasma was then transferred into pre-chilled tubes, immediately frozen on dry ice and maintained frozen (≤−80° C.) until analysis.
Aliquots (50 μL) of either plasma or tissue homogenate samples were extracted by protein precipitation with acetonitrile containing methylethyl fumarate or −4C13-MMF as the internal standard. For tissue samples, aliquots of homogenization solution (‘blank’ plasma with 12.5 mg/mL of NaF) were added to the tissue samples. The tissue samples were homogenized at 6.5 m/s for 60 seconds on a Fast Prep Tissue Homogenizer prior to protein precipitation. Concentrations of MMF in plasma, forebrain, cerebellum, jejunum, spleen and kidney samples were determined using qualified LC-MS/MS assays in the respective matrices. Data collection and integration was accomplished using an API 5500 triple quadrupole mass spectrometer with a turbo ion spray interface (AB Sciex, Foster City, Calif.), and Analyst software (version 1.6.1). The peak area ratios of MMF relative to its internal standard were used to construct a standard curve using a quadratic regression with a 1/x^2 weighting. The lower limit of quantitation (LLOQ) was 10 ng/mL for all four assays. The performances of the assays were monitored by the precision and accuracy of the standards and quality control samples.

[2] = Tail histopathology for DMF IV multi-dose tolerability; format: in vivo, C57BL/6 mice; conditions: Study 3, DMF IV 30 mg/kg once a day for 5 consecutive days
Experimental: Tissue samples were preserved in 10% neutral buffered formalin (NBF) and then transferred to the Translational Pathology Laboratory for processing into paraffin blocks, slide preparation, and hematoxylin and eosin staining. Histopathology evaluation of the stained slides was performed by the Biogen Idec Comparative Pathology department (data not provided herein).
A CBC with differential panel was performed at 10 minutes post-last dose via facial vein bleeding, and at 2 hours after the last dose, pharmacodynamic Nrf2 transcriptional responses were analyzed in tissues from the same animals. Histopathology was also performed on regions of the tail in a pilot toxicology study.

[3] = Solubility of DMF in HPbCD, Captisol, saline and D5W at ambient temperature; format: physicochemical; conditions: thermodynamic from solid
Experimental: Solubility of DMF in these media was determined at ambient temperature by preparing a saturated solution.

## COC(=O)/C=C/C(=O)OC [DMF, dimethyl fumarate]
[1]; 6 hours after IV or PO DMF dosing
  MMF level in any tissue: no detectable MMF in any tissue
[1]; 6 hours after dosing, PO or IV
  MMF level in forebrain or cerebellum: undetectable
[1]; DMF IV 30 mg/kg, 2 hours
  MMF level in any tissue: no MMF was detectable in any tissue
  MMF level in brain: below the level of quantitation
[1]; DMF IV 30 mg/kg, 6 hours
  MMF level in plasma: not detectable
[1]; DMF PO 100 mg/kg, 2 hours
  MMF levels in kidney, jejunum and spleen: markedly decreased, but detectable
[1]; PO 100 mg/kg vs IV 30 mg/kg, 10 minutes
  MMF levels in jejunum, kidney and spleen, PO versus IV: these differences were not significant
[2]
  Tail histology near the injection site: changes similar to that which was observed in vehicle control mice; also recorded: did not reveal any treatment-related findings
[3]; aqueous with cosolvent or surfactant or cyclodextrin, 40% Captisol, pH 4.42
  solubility at 24 h: 7900 µg/mL
[3]; pH 3.9, aqueous with cosolvent or surfactant or cyclodextrin, 40% HPbCD, pH 3.90
  solubility at 24 h: 15100 µg/mL
[3]; pH 4.3, aqueous with cosolvent or surfactant or cyclodextrin, 5% HPbCD, pH 4.30
  solubility at 24 h: 4030 µg/mL
[3]; pH 4.8, aqueous with cosolvent or surfactant or cyclodextrin, 5% Captisol, pH 4.80
  solubility at 24 h: 3180 µg/mL
[3]; saline or isotonic, D5W (5% Dextrose in water), pH 6.32
  solubility at 24 h: 2390 µg/mL
[3]; saline or isotonic, Saline (0.9% NaCl), pH 6.67
  solubility at 24 h: 2080 µg/mL
